Measured values reported in PMC10746103, “Development of a HPLC-MS/MS Method to Assess the Pharmacokinetics and Tumour Distribution of the Dimethylarginine Dimethylaminohydrolase 1 Inhibitors ZST316 and L-257 in a Xenograft Model of Triple-Negative Breast Cancer in Mice” (Molecules, 2023).
“And” between values parts separate entries of the source, which are not always exact repeats. Identical values can stand only once. “Also recorded” adds a separate entry of the source. Like-named read-outs stand apart in the source and are kept apart here.

Columns and labels:
[1] = Tumour distribution of ZST316 and L-257 after intraperitoneal ZST316 in MDA-MB-231 TNBC xenograft (HPLC-MS/MS); format: in vivo, SCID mice; conditions: for time intra-tumour concentration remained above the IC50 and Ki values for DDAH1 inhibition: estimated
Description: (§1) Six-week-old female severe combined immunodeficiency disease (SCID) mice (n = 24; Charles River Laboratories Italia S.r.L., Calco, Lecco, Italy), were housed under rigorous standards and handled under pathogen-free conditions in the Animal Care Facilities of the Mario Negri Institute for Pharmacological Research (Milan, Italy).
(§2) Two ×10^6 (in 10 μL) MDA-MB-231 TNBC cells were transplanted into the mammary fat pad. Tumour growth was regularly monitored with a calliper and treatment with ZST316 was given when the tumour volume reached 400–500 mm^3. Mice received either a single dose (acute treatment) or a daily dose of ZST316 30 mg/Kg intraperitoneally for five days (chronic treatment).
(§3) Plasma and tumour tissue (n = 3 mice/each time point) were sampled at 1, 8 and 24 h after treatment (on day 5 for the chronic treatment). To collect plasma, mice were anesthetized by isoflurane, the blood was drained from the retro-orbital plexus into heparinised tubes and centrifuged for 10 min at 4000× g at 4 °C. Tumours were collected and immediately frozen. Plasma and tumour samples were stored at −20 °C until analysis.
Control MDA-MB-231 TNBC cell tumours were homogenized with NH4COOH 50 mM (1:4, w:v). The homogenate (90 μL) was spiked with 5 μL of ZST316 and L-257 working solutions prepared in the range of 100–10,000 ng/mL generating seven tumour calibration standards in the range 25–5000 ng/g. The calibration curve included also a blank and a zero blank standard plasma sample (processed with IS). To prepare QC samples, 90 μL of the homogenate was mixed with an appropriate amount of QC working solutions to obtain QC plasma samples at the nominal concentration of 75, 375, and 1250 ng/g.
The procedure was similar to that described for plasma in Section 3.3.2.
(§4) Reversed-phase chromatography was performed under gradient conditions with separation on a HILIC column, C18, 3 μm, 100 A, 2.1 × 150 mm, Waters (Milford, MA, USA), coupled with a 3 μm, 3.9 × 5.0 mm guard column of the same material at the flow rate of 0.2 mL/min. Gradient features were: 10% mobile phase (MP) A (NH4HCO2 10 mM, 10% CH3CN, 0.1% HCOOH) and 90% MP B (CH3CN, 0.1% HCOOH) as initial constant condition; then to 90% MP A in 6 min and constant condition for 1.5 min. Return to start condition in 0.5 min and conditioning for 5.5 min. Total run time: 13.5 min. Analyte detection and quantification were performed using tandem mass spectrometry (MS/MS) operating in positive ionization mode as previously reported for ZST316 and ZST152 [31].

[2] = Stability of ZST316 and L-257 in frozen plasma; format: in vitro ADME, mice; conditions: for Mean found value, Stability −20 °C / Accuracy (%), Stability −20 °C: plasma QC, one month at −20 °C; for Mean found value, Stability −20 °C: n=3; for Accuracy (%), Stability −20 °C: percent of nominal
Description: The stability of ZST316 and L-257 in plasma was assessed by analysing QC samples containing both compounds after prolonged storage in the same conditions of the study samples.
Stability was determined by analysing 3 QCs per concentration level immediately after the preparation, and 3 QCs per concentration level after one month of storage at −20 °C. The analytes were considered stable at each QC concentration when the freshly prepared samples and the stability test samples differed by no more than 15% from the nominal concentrations.

DDAH1 = conditions: cited from earlier work
[3] = Plasma pharmacokinetics of ZST316 and L-257 after intraperitoneal ZST316 in MDA-MB-231 xenograft mice (HPLC-MS/MS); format: in vivo, SCID mice
Description: as §1, §2, §3
To assay ZST316 and L-257, 10 μL of IS (ZST152 WS: 500 ng/mL) were added to 100 μL of study plasma samples, standards, and QCs in a polypropylene tube. The samples were then added with 10 μL of NH4COOH 50 mM, mixed and added with 400 μL CH3OH:0.1% HCOOH, vortex mixed again and centrifuged at 13,200 rpm for 10 min at 4 °C. The supernatant was transferred to a 1.5 mL Eppendorf tube, dried under nitrogen flow and reconstituted with 100 μL of mobile phase (MP) A:B (1:1, v/v). Finally, the samples were centrifuged at 13,200 rpm for 10 min at 4 °C and the supernatant transferred into vials for HPLC-MS/MS analysis.
as §4

[4] = Tolerability of chronic intraperitoneal ZST316 treatment; format: in vivo; conditions: ZST316 30 mg/Kg i.p. daily for five days
Description: as §2

[5] = parameters: method as in PMID 35164277; conditions: four-week-old FVB mice; oral, intravenous and intraperitoneal administration; cited from earlier work
[6] = acute (single dose) ZST316 30 mg/Kg i.p., 1 h
[7] = acute ZST316 30 mg/Kg i.p., 1 h, 30 mg/kg
[8] = acute ZST316 30 mg/Kg i.p., 8 h, 30 mg/kg
[9] = acute ZST316 30 mg/Kg i.p., 8 h, n=3, 30 mg/kg
[10] = acute ZST316 30 mg/Kg i.p., 24 h, 30 mg/kg
[11] = acute ZST316 30 mg/Kg i.p., approximately estimated due to limited time points
[12] = chronic (five-day) ZST316 30 mg/Kg i.p. daily, 1 h
[13] = chronic (five-day) ZST316 30 mg/Kg i.p. daily, 24 h
[14] = chronic ZST316 30 mg/Kg i.p. daily
[15] = chronic ZST316 30 mg/Kg i.p. daily, day 5, 1 h, 30 mg/kg
[16] = chronic ZST316 30 mg/Kg i.p. daily, day 5, 8 h, 30 mg/kg
[17] = chronic ZST316 30 mg/Kg i.p. daily, day 5, 8 h, n=3, 30 mg/kg
[18] = chronic ZST316 30 mg/Kg i.p. daily, day 5, 24 h, 30 mg/kg
[19] = chronic ZST316 30 mg/Kg i.p. daily, approximately estimated due to limited time points
[20] = range over acute and chronic treatment

SMILES: COCCNC(N)=NCCC[C@H](N)C(=O)NS(C)(=O)=O [ZST316]
- mean intra-tumour concentration [1, 6]: 2.0 µg/g
- mean intra-tumour concentration ([1]; acute (single dose) ZST316 30 mg/Kg i.p., 24 h): 0.04 µg/g
- tumour AUC ([1]; acute ZST316 30 mg/Kg i.p.): 11.4 µg·h/g
- Cmax tumour ([1]; acute ZST316 30 mg/Kg i.p., 30 mg/kg): 2.00 μg/g and 6.47 μM
- tumour concentration, individual mice [1, 7]: 2470 ng/g and 1210 ng/g and 2320 ng/g and 7.99 µM and 3.91 µM and 7.50 µM
- tumour concentration, individual mice [1, 8]: 109 ng/g and 173 ng/g and 0.48 µM and 0.35 µM and 0.56 µM and 149 ng/g
- mean tumour concentration [1, 9]: 144 ng/g and 0.46 μM
- tumour concentration, individual mice [1, 10]: 37.3 ng/g and 32.2 ng/g and 49.0 ng/g and 0.12 µM and 0.10 µM and 0.16 µM
- half-life tumour [1, 11]: 4.5 h
- time intra-tumour concentration remained above the IC50 and Ki values for DDAH1 inhibition ([1]; after acute ZST316 treatment): 15.5 h
- time intra-tumour concentration remained above the IC50 and Ki values for DDAH1 inhibition ([1]; after chronic ZST316 treatment): 16.5 h
- mean intra-tumour concentration [1, 12]: 2.09 µg/g
- mean intra-tumour concentration [1, 13]: 0.06 µg/g
- tumour AUC [1, 14]: 11.8 µg·h/g
- tumour concentration, individual mice [1, 15]: 2490 ng/g and 1750 ng/g and 2020 ng/g and 8.05 µM and 5.66 µM and 6.53 µM
- tumour concentration, individual mice [1, 16]: 110 ng/g and 146 ng/g and 0.39 µM and 0.36 µM and 0.47 µM and 120 ng/g
- mean tumour concentration [1, 17]: 125 ng/g and 0.41 μM
- mean tumour concentration ([1]; chronic ZST316 30 mg/Kg i.p. daily, day 5, 24 h): 57.0 ng/g
- tumour concentration, individual mice [1, 18]: 37.8 ng/g and 108 ng/g and 25.2 ng/g and 0.12 µM and 0.35 µM and 0.08 µM
- mean tumour concentration ([1]; chronic ZST316 30 mg/Kg i.p. daily, day 5, 24 h, n=3): 0.18 µM
- Cmax tumour ([1]; chronic ZST316 30 mg/Kg i.p. daily, 30 mg/kg): 2.09 μg/g and 6.76 μM
- half-life tumour [1, 19]: 5.0 h
- half-life tumour [1, 20]: 4.5 to 5.0 h
- measured concentration in unknown study tumour sample (Figure 3) ([1]; representative chromatogram, sample taken at 24 h after acute treatment (b8)): 37.3 ng/g
- stability in frozen plasma ([2]; at least one month at −20 °C): stable
- Mean found value, Stability −20 °C ([2]; actual value 15.00 ng/mL): 14.3 ng/mL
- Accuracy (%), Stability −20 °C ([2]; actual value 15.00 ng/mL): 95.4%
- Mean found value, Stability −20 °C ([2]; actual value 75.00 ng/mL): 72.4 ng/mL
- Accuracy (%), Stability −20 °C ([2]; actual value 75.00 ng/mL): 96.5%
- Mean found value, Stability −20 °C ([2]; actual value 250.00 ng/mL): 240.0 ng/mL
- Accuracy (%), Stability −20 °C ([2]; actual value 250.00 ng/mL): 96.0%
- Ki expressed as concentration (DDAH1; equivalent of 261 nM, personal data): 0.0803 µg/mL
- Ki (DDAH1; original value): 1000 nM
- Ki (DDAH1; revised using a more performant assay, personal data): 261 nM
- accumulation in plasma and tumour during chronic treatment ([3]; ZST316 30 mg/Kg i.p. daily for five days, day 5 vs day 1, 30 mg/kg): without accumulation; also recorded: No accumulation
- mean plasma concentration [3, 6]: 2.79 µg/mL
- mean plasma concentration ([3]; acute (single dose) ZST316 30 mg/Kg i.p., 24 h, 30 mg/kg): 0.05 µg/mL and 0.04 µg/mL
- Cmax ([3]; acute ZST316 30 mg/Kg i.p.): 9.03 µM
- Cmax plasma ([3]; acute ZST316 30 mg/Kg i.p.): 2790 ng/mL
- Plasma AUC1–24 h ([3]; acute ZST316 30 mg/Kg i.p.): 0.050
- Plasma AUC1–24 h ([3]; acute ZST316 30 mg/Kg i.p. (day 1)): 15.3 µg·h/mL
- plasma concentration, individual mice [3, 7]: 3000 ng/mL and 2150 ng/mL and 3210 ng/mL and 9.70 µM and 6.95 µM and 10.38 µM
- plasma concentration, individual mice [3, 8]: 162 ng/mL and 147 ng/mL and 0.38 µM and 0.52 µM and 0.48 µM and 119 ng/mL
- mean plasma concentration [3, 9]: 143 ng/mL and 0.46 μM
- plasma concentration, individual mice [3, 10]: 64.2 ng/mL and 53.7 ng/mL and 25 ng/mL and 0.21 µM and 0.17 µM and 0.08 µM
- half-life plasma [3, 11]: 4.4 h
- mean plasma concentration [3, 12]: 2.22 µg/mL
- mean plasma concentration [3, 13]: 0.12 µg/mL
- Cmax [3, 14]: 7.18 µM
- Cmax plasma [3, 14]: 2220 ng/mL
- Plasma AUC1–24 h [3, 14]: 0.040
- Plasma AUC1–24 h ([3]; chronic ZST316 30 mg/Kg i.p. daily (day 5)): 12.4 µg·h/mL
- plasma concentration, individual mice [3, 15]: 2440 ng/mL and 2030 ng/mL and 2200 ng/mL and 7.89 µM and 6.57 µM and 7.12 µM
- plasma concentration, individual mice [3, 16]: 81.7 ng/mL and 54.7 ng/mL and 41.8 ng/mL and 0.26 µM and 0.18 µM and 0.14 µM
- mean plasma concentration [3, 17]: 59.4 ng/mL and 0.19 μM
- plasma concentration, individual mice [3, 18]: 101 ng/mL and 173 ng/mL and 86.3 ng/mL and 0.33 µM and 0.56 µM and 0.28 µM
- half-life plasma [3, 19]: 7.1 h
- half-life plasma [3, 20]: 4.4 to 7.1 h
- measured concentration in unknown study plasma sample (Figure 2) ([3]; representative chromatogram, sample taken at 1 h after acute treatment (b8)): 2200 ng/mL
- tolerability / signs of toxicity [4]: well tolerated, and no signs of toxicity were recorded
- tolerability [5]: excellent tolerability
